Test results as given in ChEMBL document CHEMBL1201862, “PubChem BioAssay data set” (2004).
Activity calls are given as the source filed them.

Legend:
[1] = viability of uninfected HEp-2 cells – cell-based, HTS, cytotoxicity control for RSV inhibitor project, dose response (AID 2410); type: functional; conditions: human respiratory syncytial virus
[2] = target: Troponin, cardiac muscle (Homo sapiens, UniProt P19429+P45379+P63316); test: Fluorescence-based biochemical high throughput dose response assay for activators of the calcium sensitivity of cardiac Regulated Thin Filaments (RTF). [Related pubchem assays (depositor defined):AID493008, AID493018, AID504382, AID504383]; type: protein-complex assay
[3] = blockers of HIV-1 ZM109 envelope-driven cell-cell fusion – HeLa effector, CEM target cells, luciferase, cherry-pick, dose response (AID 652058); type: functional, cell-based;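 further: luciferase signal from HIV-1 Env mediated cell-cell fusion of effector and target cells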
[4] = tested on: BJ; test: BJ-TERT-LT-ST fibroblast viability loss – cell-based, RAS-independent, luminescence, dose response (AID 1935); type: functional; conditions: Homo sapiens;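 further: BJ fibroblasts immortalized with TERT plus LT and ST oncogenes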
[5] = off-target signal loss in HeLa-CEM21 co-culture – HeLa F-luc CTL cells, cherry-picked, counter-screen for HIV-1 Env fusion inhibitor project, dose response (AID 652040); type: functional, cell-based;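 further: potency for signal decrease marking cytotoxic or nonspecific inhibition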
[6] = tested on: BJ; test: cells; type: functional, cell-based; conditions: Homo sapiens
[7] = tested on: BJ; test: growth inhibition of engineered Ras-driven BJ cells – cell-based, alamar blue fluorescence, cherrypicked samples, dose response (AID 2631); type: functional; conditions: Homo sapiens;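 further: confirmatory dose-response assay in RAS-dependent BJ fibroblasts engineered with TERT, LT and ST, with cytotoxicity read by fluorescence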
[8] = blockers of HIV-1 envelope-mediated cell-cell fusion – cherry-pick, dose response (AID 652057); type: functional, cell-based
[9] = tested on: INS1; test: INS-1E survival protection against cytokine death – cell-based, luminescence, retest, dose response (AID 449756); type: functional; conditions: Rattus norvegicus;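 further: cell death triggered by IL-1 beta plus TNF-alpha plus IFN-gamma mixture; protective hits raise ATP signal compared with cytokine alone wells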
[10] = DRD fibroblast viability loss – cell-based, non-viral oncogenic, luminescence, dose response (AID 1934); type: functional; conditions: Homo sapiens
[11] = target: T1, Replicative DNA helicase DnaB (Mycobacterium tuberculosis, UniProt P9WMR3); test: DnaB intein splicing inhibitors, dose response, biochemical, cell-free fluorescence (AID 449749); type: functional
T1 sequence (P9WMR3 whole entry): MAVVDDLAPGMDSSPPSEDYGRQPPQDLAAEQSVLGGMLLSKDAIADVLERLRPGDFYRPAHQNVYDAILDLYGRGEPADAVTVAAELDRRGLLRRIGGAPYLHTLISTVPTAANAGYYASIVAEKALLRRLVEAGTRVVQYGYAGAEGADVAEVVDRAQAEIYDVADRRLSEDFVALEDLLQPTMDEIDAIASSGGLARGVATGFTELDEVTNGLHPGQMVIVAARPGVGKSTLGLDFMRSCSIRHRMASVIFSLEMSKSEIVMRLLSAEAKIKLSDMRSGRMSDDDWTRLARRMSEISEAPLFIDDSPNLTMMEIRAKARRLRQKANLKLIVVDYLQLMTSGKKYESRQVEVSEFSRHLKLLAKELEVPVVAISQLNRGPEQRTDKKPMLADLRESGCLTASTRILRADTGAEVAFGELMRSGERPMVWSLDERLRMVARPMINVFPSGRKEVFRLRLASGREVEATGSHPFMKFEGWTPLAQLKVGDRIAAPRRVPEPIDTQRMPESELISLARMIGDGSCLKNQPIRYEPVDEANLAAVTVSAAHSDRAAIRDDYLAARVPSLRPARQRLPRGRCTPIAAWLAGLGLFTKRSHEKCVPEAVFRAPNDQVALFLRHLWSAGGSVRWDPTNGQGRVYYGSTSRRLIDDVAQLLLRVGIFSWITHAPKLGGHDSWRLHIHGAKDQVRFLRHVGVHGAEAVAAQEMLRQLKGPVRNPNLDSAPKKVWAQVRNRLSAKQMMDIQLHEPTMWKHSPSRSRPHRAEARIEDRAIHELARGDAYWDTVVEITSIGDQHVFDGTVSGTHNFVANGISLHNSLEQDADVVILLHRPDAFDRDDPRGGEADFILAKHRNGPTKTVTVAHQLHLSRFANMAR

[12] = target: Nonstructural protein 1 (Influenza A virus, UniProt Q194T2); type: functional, Influenza A virus (A/California/07/2009(H1N1))
[13] = target: T2, Protein RecA (Mycobacterium tuberculosis, UniProt P9WHJ3); test: Fluorescence Cell-Free Homogeneous Dose Retest to Identify Inhibitors of RecA-Intein Splicing Activity. [Related pubchem assays (depositor defined):AID2097, AID2223, AID489010, AID492950]; type: functional
T2 sequence (P9WHJ3 whole entry): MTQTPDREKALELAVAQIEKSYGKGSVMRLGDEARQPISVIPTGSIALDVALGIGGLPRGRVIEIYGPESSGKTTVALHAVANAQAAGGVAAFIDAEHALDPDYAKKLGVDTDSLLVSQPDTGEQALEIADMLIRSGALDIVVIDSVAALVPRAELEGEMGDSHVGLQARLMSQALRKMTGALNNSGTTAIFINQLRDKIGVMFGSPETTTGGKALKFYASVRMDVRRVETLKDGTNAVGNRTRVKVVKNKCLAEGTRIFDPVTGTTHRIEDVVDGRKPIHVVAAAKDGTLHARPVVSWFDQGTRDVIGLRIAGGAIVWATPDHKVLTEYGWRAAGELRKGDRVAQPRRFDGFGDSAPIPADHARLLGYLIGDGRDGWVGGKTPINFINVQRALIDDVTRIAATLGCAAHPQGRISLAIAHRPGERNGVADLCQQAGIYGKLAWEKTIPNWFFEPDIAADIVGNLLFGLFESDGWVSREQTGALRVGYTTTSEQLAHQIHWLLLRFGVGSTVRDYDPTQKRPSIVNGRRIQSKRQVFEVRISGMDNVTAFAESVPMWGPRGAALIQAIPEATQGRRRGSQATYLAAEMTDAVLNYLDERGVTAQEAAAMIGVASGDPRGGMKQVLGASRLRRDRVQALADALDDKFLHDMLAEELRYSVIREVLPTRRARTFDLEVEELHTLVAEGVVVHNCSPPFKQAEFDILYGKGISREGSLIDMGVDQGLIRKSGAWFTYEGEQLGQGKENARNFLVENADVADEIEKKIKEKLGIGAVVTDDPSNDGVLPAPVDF

[14] = viability loss in CEM21 cells – cell-based, CellTiter-Glo luminescence, cherry-picked, cytotoxicity control for viral fusion inhibitor project, dose response (AID 652042); type: functional;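 further: potency for signal decrease meaning cytotoxicity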
[15] = HIV-1 AD8 envelope cell-cell fusion blockers – cherry-pick, dose response (AID 652062); type: functional, cell-based;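 further: luciferase signal from cell-cell fusion driven by HIV-1 clade B AD8 Env; potency is for inhibitors of fusion seen as a drop in luminescence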
[16] = Intein inhibitors as potential Tuberculosis drugs, a cytotoxicity screen. [Related pubchem assays (depositor defined):AID2221, AID2223, AID434968, AID435010, AID449749, AID449750, AID489010]; type: functional
[17] = tested on: BJ; test: BJ-TERT fibroblast viability loss – cell-based, RAS-independent, luminescence, dose response (AID 1933); type: functional; conditions: Homo sapiens
[18] = target: Intestinal-type alkaline phosphatase (Homo sapiens, UniProt P09923); test: human intestinal alkaline phosphatase activators, dose response, biochemical, luminescence, uHTS hits (AID 463120); type: functional
[19] = target: T3, Voltage-gated N-type calcium channel alpha-1B subunit/Amyloid beta A4 precursor protein-binding family A member 1 (Homo sapiens, UniProt Q00975+Q02410); type: protein assay
[20] = target: T3, Voltage-gated N-type calcium channel alpha-1B subunit/Amyloid beta A4 precursor protein-binding family A member 1; type: protein assay; remark: listed apart in the source
[21] = target: DNA dC->dU-editing enzyme APOBEC-3G (Homo sapiens, UniProt Q9HC16); type: functional;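 further: Dose-response counterscreen measuring inhibition of APOBEC3G DNA deaminase activity, run while confirming APOBEC3A inhibitors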
[22] = target: T4, High affinity choline transporter 1 (Homo sapiens, UniProt Q9GZV3); test: human choline transporter blockers, potency – cell-based, 5-point CRC, membrane potential dye, dose response (AID 504840); type: functional
T4 sequence (Q9GZV3 whole entry): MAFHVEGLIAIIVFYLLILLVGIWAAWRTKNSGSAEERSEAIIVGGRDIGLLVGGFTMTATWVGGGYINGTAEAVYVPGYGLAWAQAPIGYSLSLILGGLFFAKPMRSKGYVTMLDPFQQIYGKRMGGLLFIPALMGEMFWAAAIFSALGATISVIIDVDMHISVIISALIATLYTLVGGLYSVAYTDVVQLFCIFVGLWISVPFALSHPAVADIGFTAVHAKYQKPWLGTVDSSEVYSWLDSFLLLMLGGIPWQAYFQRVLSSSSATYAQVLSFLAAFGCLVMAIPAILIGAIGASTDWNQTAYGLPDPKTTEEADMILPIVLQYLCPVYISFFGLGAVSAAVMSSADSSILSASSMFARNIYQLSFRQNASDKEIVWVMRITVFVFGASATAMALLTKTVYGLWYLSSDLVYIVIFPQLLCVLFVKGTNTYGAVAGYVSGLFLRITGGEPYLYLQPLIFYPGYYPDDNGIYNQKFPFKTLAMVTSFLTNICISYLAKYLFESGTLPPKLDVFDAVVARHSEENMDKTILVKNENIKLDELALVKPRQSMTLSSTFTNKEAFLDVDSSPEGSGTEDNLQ

[23] = target: DNA dC->dU-editing enzyme APOBEC-3A (Homo sapiens, UniProt P31941); test: Dose Response confirmation of small molecule APOBEC3A DNA Deaminase Inhibitors via a fluorescence-based single-stranded DNA deaminase assay. [Related pubchem assays (depositor defined):AID493011, AID493024]; type: functional

CCn1c(=O)c(C(=O)CN2CCCc3ccccc32)c(N)n(Cc2ccccc2)c1=O
inactive: EC50 [2] > 23.8 µM
active: CC50 [1] 12.4 µM

C(=N\Nc1nncc2ccccc12)/c1ccccn1
active: AC50 [3] < 0.26 µM | EC50 [4] 4.42 µM | AC50 [5] 4.38 µM | EC50 [7] 3.77 µM | AC50 [8] 0.478 µM | AC50 [9] 1.58 µM | AC50 [11] 3.19 µM | IC50 [12] 4.45 µM | EC50 [13] 1.29 µM | AC50 [14] 4.9 µM | AC50 [15] 4.65 µM | CC50 [16] 6.58 µM
inconclusive: EC50 [6] 10.8 µM | EC50 [10] 5.08 µM | EC50 [17] 8.71 µM

COc1cccc(/C=N/Nc2nn3cnnc3c3ccccc23)c1O
active: IC50 [19] 20.6 µM
inactive: EC50 [18] > 100 µM | IC50 [20] > 50 µM

CC(=O)OCCCCCCCCCCC[N+]1(C)CCCCC1
active: IC50 [21] 2.17 µM | IC50 [22] 14.1 µM | IC50 [23] 2.03 µM
